Laboratory results: ChEMBL document CHEMBL1201862, “PubChem BioAssay data set” (2004)
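48-hour exposure; five concentrations; linearly interpolated endpoints. GI50 = concentration required for 50% inhibition of growth.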 Activity calls are given as the source filed them. Rule as the data show it: active = GI50 up to about 1.1 µM and inactive = higher.

Columns and labels:
Test in all cases: inhibition of tumour cell growth, NCI panel, 48 h
[1] = system: DLD-1
[2] = system: DMS-273
[3] = system: HOP-18
[4] = system: KM-20L2
[5] = system: M19-MEL
[6] = system: SNB-78
[7] = system: XF498
[8] = system: LXFL 529
[9] = system: RXF 631

SMILES	GI50 [1]	GI50 [2]	GI50 [3]	GI50 [4]	GI50 [5]	GI50 [6]	GI50 [7]	GI50 [8]	GI50 [9]
CCCNC1=C(C)C(=O)C2=C(C1=O)[C@H](COC(N)=O)[C@]1(OC)[C@@H]3N[C@@H]3CN21	5 µM (inactive)	0.257 µM (active)	13.4 µM (inactive)	8.75 µM (inactive)	3.44 µM (inactive)	26.9 µM (inactive)	4.78 µM (inactive)	–	–
Cc1ccc(C(C)(C)C[P+](C)(c2ccccc2)c2ccccc2)cc1	27.2 µM (inactive)	4.89 µM (inactive)	6.43 µM (inactive)	6.1 µM (inactive)	4.52 µM (inactive)	14.7 µM (inactive)	2.88 µM (inactive)	–	–
COc1ccc(C[C@H](N)C(=O)N2C[C@@H](CO)C[C@@H](n3ccc(=O)[nH]c3=O)C2)cc1	> 100 µM (inactive)	> 100 µM (inactive)	> 100 µM (inactive)	> 100 µM (inactive)	> 100 µM (inactive)	–	–	> 100 µM (inactive)	–
O=C(NCCc1ccccc1)C1C(=O)C(=O)N(CCc2ccccc2)C1=O (centres undefined)	> 100 µM (inactive)	> 100 µM (inactive)	–	> 100 µM (inactive)	> 100 µM (inactive)	> 100 µM (inactive)	> 100 µM (inactive)	> 100 µM (inactive)	> 100 µM (inactive)
NNC(=S)N/N=C(\CCCC(=O)NCCc1ccccc1)CC(=O)c1ccccc1	> 100 µM (inactive)	–	> 100 µM (inactive)	> 100 µM (inactive)	> 100 µM (inactive)	> 100 µM (inactive)	–	> 100 µM (inactive)	–
COc1ccc2c(c1)c1c(C)c3cnccc3c(C)c1n2CCCN	0.0853 µM (active)	0.1 µM (active)	0.42 µM (active)	0.119 µM (active)	0.203 µM (active)	0.286 µM (active)	0.422 µM (active)	–	–
CCNC(=O)CCN(C(=O)O)S(=O)(=O)c1ccc(NC(=O)c2ccccc2)cc1	> 100 µM (inactive)	23.8 µM (inactive)	> 100 µM (inactive)	> 100 µM (inactive)	77.6 µM (inactive)	> 100 µM (inactive)	> 100 µM (inactive)	> 100 µM (inactive)	–
O=C(O)CN1CCSc2ccccc2CN(CC(=O)O)CCSc2ccccc2C1	> 100 µM (inactive)	> 100 µM (inactive)	> 100 µM (inactive)	> 100 µM (inactive)	> 100 µM (inactive)	> 100 µM (inactive)	–	> 100 µM (inactive)	–
CC(=O)O[C@H]1CC[C@@]2(C)C(=CC[C@H]3C4=CC=C(C(C)=O)[C@@]4(C)CCC32)C1 (some centres undefined)	37.8 µM (inactive)	28.2 µM (inactive)	> 100 µM (inactive)	44.1 µM (inactive)	36.3 µM (inactive)	28.2 µM (inactive)	–	30.5 µM (inactive)	–
CC(=O)Nc1cccc(/N=N/N(C)C)c1	> 31.6 µM (inactive)	> 100 µM (inactive)	> 100 µM (inactive)	> 100 µM (inactive)	> 100 µM (inactive)	> 100 µM (inactive)	> 100 µM (inactive)	–	–
OCC(O)COc1ccc(F)cc1 (centres undefined)	> 100 µM (inactive)	> 100 µM (inactive)	> 100 µM (inactive)	> 100 µM (inactive)	> 100 µM (inactive)	> 100 µM (inactive)	> 100 µM (inactive)	> 100 µM (inactive)	–
C/C=C/C(=O)Oc1cccc2cccnc12	4.5 µM (inactive)	14.6 µM (inactive)	24.5 µM (inactive)	8.07 µM (inactive)	12.5 µM (inactive)	27.4 µM (inactive)	8.41 µM (inactive)	4.21 µM (inactive)	–
COc1cccc(NC(=O)CC(=O)N2N=C(N(CCC#N)c3ccccc3C)CC2c2ccccc2)c1 (centres undefined)	> 100 µM (inactive)	> 100 µM (inactive)	> 100 µM (inactive)	> 100 µM (inactive)	> 100 µM (inactive)	> 100 µM (inactive)	–	> 100 µM (inactive)	> 100 µM (inactive)
